Laboratory results as given in PubChem BioAssay AID330 (DTP/NCI, 2004).
Where “and” joins values, the source holds several entries; their conditions need not be identical. Equal values may be shown once. Toxic doses and inconclusive results are not listed.

Test system: P388 leukemia ip, CD2F1 mice, survival T/C
Assay: NCI In Vivo Anticancer Drug Screen. Data for tumor model P388 Leukemia (intraperitoneal) in CD2F1 (CDF1) mice
Conditions: endpoint: median survival time, higher = longer survival
Outline: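 Mice carrying the transplanted tumor received test compound or vehicle. Survival was recorded in each group, and the value is the treated-group measurement divided by that of the vehicle-treated control group.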

[1] = dose: 12.5 mg/kg/injection, schedule: Q01DX009 (ip), vehicle: saline
[2] = dose: 50.0 mg/kg/injection, schedule: Q01DX009 (ip), vehicle: saline
[3] = dose: 50.0 mg/kg/injection, schedule: Q01DX005 (ip), vehicle: saline with Tween-80
[4] = dose: 100.0 mg/kg/injection, schedule: Q01DX005 (ip), vehicle: saline with Tween-80
[5] = dose: 200.0 mg/kg/injection, schedule: Q01DX005 (ip), vehicle: saline with Tween-80
[6] = dose: 100.0 mg/kg/injection, schedule: Q01DX009 (ip), vehicle: saline with Tween-80
[7] = dose: 50.0 mg/kg/injection, schedule: Q01DX005 (ip), vehicle: Klucel (hydroxypropylcellulose) (HPC)
[8] = dose: 100.0 mg/kg/injection, schedule: Q01DX005 (ip), vehicle: Klucel (hydroxypropylcellulose) (HPC)
[9] = dose: 200.0 mg/kg/injection, schedule: Q01DX005 (ip), vehicle: Klucel (hydroxypropylcellulose) (HPC)
[10] = dose: 50.0 mg/kg/injection, schedule: Q01DX009 (ip), vehicle: saline with Tween-80
[11] = dose: 200.0 mg/kg/injection, schedule: Q01DX009 (ip), vehicle: saline with Tween-80

c1ccc(CC23CCCCC2N3)cc1 (stereo not given)
T/C [1]: 95 % of control
T/C (dose: 12.5 mg/kg/injection, schedule: Q04DX003 (ip), vehicle: saline): 90 % of control
T/C (dose: 25.0 mg/kg/injection, schedule: Q01DX009 (ip), vehicle: saline): 113 % of control
T/C (dose: 25.0 mg/kg/injection, schedule: Q04DX003 (ip), vehicle: saline): 90 % of control
T/C [2]: 100 % of control
T/C (dose: 50.0 mg/kg/injection, schedule: Q04DX003 (ip), vehicle: saline): 100 % of control

Cc1ccc(S(=O)(=O)CC(=O)CC(=O)C(=O)Nc2ccc(C)cc2C)cc1
T/C (dose: 60.0 mg/kg/injection, schedule: Q01DX005 (ip), vehicle: saline with Tween-80): 108 % of control
T/C (dose: 120.0 mg/kg/injection, schedule: Q01DX005 (ip), vehicle: saline with Tween-80): 106 % of control
T/C (dose: 240.0 mg/kg/injection, schedule: Q01DX005 (ip), vehicle: saline with Tween-80): 99 % of control

[N-]=[N+]=NC12CC3CC4C5CC(CC41)CC2[C@H]5C3
T/C [3]: 97 % of control
T/C [4]: 99 % of control
T/C [5]: 100 % of control

Cc1ccc(C2=Nc3ccccc3SC(c3cccc([N+](=O)[O-])c3)C2)cc1 (stereo not given)
T/C (dose: 3.12 mg/kg/injection, schedule: Q01DX009 (ip), vehicle: saline): 90 % of control
T/C (dose: 6.25 mg/kg/injection, schedule: Q01DX009 (ip), vehicle: saline): 97 % of control
T/C [1]: 88 % of control
T/C [2]: 86 % of control

CC1=C/C(=C(\c2cc(C)c(O)c(C(=O)O)c2)c2c(Cl)cccc2Cl)C=C(C(=O)O)C1=O
T/C [3]: 103 % of control
T/C [4]: 100 % of control
T/C [5]: 100 % of control

CCCCCCOC(=O)c1cccc(N)c1
T/C (dose: 50.0 mg/kg/injection, schedule: Q01DX009 (ip), vehicle: Klucel (hydroxypropylcellulose) (HPC)): 100 % of control
T/C (dose: 100.0 mg/kg/injection, schedule: Q01DX009 (ip), vehicle: Klucel (hydroxypropylcellulose) (HPC)): 106 % of control
T/C (dose: 200.0 mg/kg/injection, schedule: Q01DX009 (ip), vehicle: Klucel (hydroxypropylcellulose) (HPC)): 102 % of control

N#Cc1cccc(CN2CCCNCC2)c1
T/C (dose: 6.25 mg/kg/injection, schedule: Q01DX009 (ip), vehicle: water): 94 % of control
T/C (dose: 12.5 mg/kg/injection, schedule: Q01DX009 (ip), vehicle: water): 94 % of control
T/C (dose: 25.0 mg/kg/injection, schedule: Q01DX009 (ip), vehicle: water): 103 % of control
T/C (dose: 50.0 mg/kg/injection, schedule: Q01DX009 (ip), vehicle: water): 109 % of control
T/C (dose: 100.0 mg/kg/injection, schedule: Q01DX009 (ip), vehicle: water): 105 % of control

CC(=O)Nc1ccc(S(=O)(=O)Nc2ccc3[nH]c(=O)oc3c2)cc1
T/C (dose: 50.0 mg/kg/injection, schedule: Q04DX002 (ip), vehicle: Klucel (hydroxypropylcellulose) (HPC)): 104 % of control
T/C (dose: 100.0 mg/kg/injection, schedule: Q04DX002 (ip), vehicle: Klucel (hydroxypropylcellulose) (HPC)): 97 % of control
T/C (dose: 200.0 mg/kg/injection, schedule: Q04DX002 (ip), vehicle: Klucel (hydroxypropylcellulose) (HPC)): 97 % of control

C=C1C(=O)O[C@H]2C1[C@H](OC(=O)/C(C)=C\C)CC(=C)[C@@H]1C(=O)[C@H]3O[C@@]3(C)[C@@]12O (stereo not given in full)
T/C (dose: 12.5 mg/kg/injection, schedule: Q01DX005 (ip), vehicle: saline + alcohol): 116 % of control and 117 % of control
T/C (dose: 25.0 mg/kg/injection, schedule: Q01DX005 (ip), vehicle: saline + alcohol): 110 % of control and 121 % of control

CNC(=S)N/N=C/CCCC/C=N/NC(=S)NC
T/C (dose: 100.0 mg/kg/injection, schedule: Q01DX001 (ip), vehicle: saline): 96 % of control
T/C (dose: 200.0 mg/kg/injection, schedule: Q01DX001 (ip), vehicle: saline): 96 % of control
T/C (dose: 400.0 mg/kg/injection, schedule: Q01DX001 (ip), vehicle: saline): 101 % of control

C/C(=N\N=C(/[Se])N1CC2CCC(CC2)C1)c1ccccn1
T/C (dose: 1.56 mg/kg/injection, schedule: Q01DX009 (ip), vehicle: Klucel (hydroxypropylcellulose) (HPC)): 100 % of control
T/C (dose: 3.12 mg/kg/injection, schedule: Q01DX009 (ip), vehicle: Klucel (hydroxypropylcellulose) (HPC)): 124 % of control
T/C (dose: 12.5 mg/kg/injection, schedule: Q01DX009 (ip), vehicle: Klucel (hydroxypropylcellulose) (HPC)): 98 % of control and 97 % of control

CC(C)n1c2c([n+](C)c1/C=C/c1ccccc1)C(=O)c1ccccc1C2=O
T/C (dose: 0.44 mg/kg/injection, schedule: Q01DX009 (ip), vehicle: saline): 109 % of control
T/C (dose: 0.66 mg/kg/injection, schedule: Q01DX009 (ip), vehicle: saline): 116 % of control
T/C (dose: 1.0 mg/kg/injection, schedule: Q01DX009 (ip), vehicle: saline): 119 % of control
T/C (dose: 1.5 mg/kg/injection, schedule: Q01DX009 (ip), vehicle: saline): 112 % of control

C/C=C/C=C1/OC(C)=C(C(C)=O)C1=O
T/C (dose: 12.5 mg/kg/injection, schedule: Q01DX009 (ip), vehicle: saline + Tween-80 + alcohol): 117 % of control
T/C (dose: 25.0 mg/kg/injection, schedule: Q01DX009 (ip), vehicle: saline + Tween-80 + alcohol): 114 % of control
T/C (dose: 100.0 mg/kg/injection, schedule: Q01DX009 (ip), vehicle: saline + Tween-80 + alcohol): 112 % of control
T/C [6]: 124 % of control
T/C (dose: 200.0 mg/kg/injection, schedule: Q01DX009 (ip), vehicle: saline + Tween-80 + alcohol): 123 % of control

NC(=O)c1cncc(C(=O)O)c1
T/C [7]: 106 % of control
T/C [8]: 101 % of control
T/C [9]: 100 % of control

COc1ccc(CNCCNCc2ccc(OC)cc2)cc1
T/C (dose: 50.0 mg/kg/injection, schedule: Q01DX001 (ip), vehicle: Klucel (hydroxypropylcellulose) (HPC)): 93 % of control
T/C (dose: 100.0 mg/kg/injection, schedule: Q01DX001 (ip), vehicle: Klucel (hydroxypropylcellulose) (HPC)): 93 % of control
T/C (dose: 200.0 mg/kg/injection, schedule: Q01DX001 (ip), vehicle: Klucel (hydroxypropylcellulose) (HPC)): 90 % of control

Nc1cc(Cl)cc2c1-c1ccc(Cl)cc1C2
T/C [7]: 93 % of control
T/C [8]: 93 % of control
T/C [9]: 94 % of control

NCCCCC(C(=O)NC(CCC(=O)OCc1ccccc1)C(=O)Oc1ccc([N+](=O)[O-])cc1)N(C(=O)OCc1ccccc1)C(=O)OCc1ccccc1 (stereo not given)
T/C [3]: 100 % of control
T/C [4]: 100 % of control
T/C [5]: 92 % of control

CC(C)NC(=O)OCc1c(COC(=O)NC(C)C)c2n(c1Br)CCC2
T/C (dose: 25.0 mg/kg/injection, schedule: Q01DX005 (ip), vehicle: saline with Tween-80): 186 % of control

Cc1ccc(NC(=O)Oc2ccc(F)cc2)c([N+](=O)[O-])c1
T/C [10]: 96 % of control
T/C [6]: 95 % of control
T/C [11]: 88 % of control

O=C(Nc1ccc(Br)cc1C(F)(F)F)O/N=C(\c1ccccc1)C(O)c1ccccc1 (stereo not given)
T/C [10]: 101 % of control
T/C [6]: 96 % of control
T/C [11]: 100 % of control

CNCC(=O)Nc1ccc2c(c1)C(=O)c1ccc(NC(=O)CNC)cc1C2=O
T/C (dose: 94.75 mg/kg/injection, schedule: Q01DX001 (ip), vehicle: suspension in saline): 110 % of control

O=[N+]([O-])c1ccc(N=C/C=C\Nc2ccc([N+](=O)[O-])cc2)cc1
T/C (dose: 60.0 mg/kg/injection, schedule: Q01DX005 (ip), vehicle: Klucel (hydroxypropylcellulose) (HPC)): 87 % of control
T/C (dose: 120.0 mg/kg/injection, schedule: Q01DX005 (ip), vehicle: Klucel (hydroxypropylcellulose) (HPC)): 93 % of control
T/C (dose: 240.0 mg/kg/injection, schedule: Q01DX005 (ip), vehicle: Klucel (hydroxypropylcellulose) (HPC)): 104 % of control

CC(C)(C)C(=O)C1C(=O)c2ccccc2C1=O
T/C (dose: 1.56 mg/kg/injection, schedule: Q04DX003 (ip), vehicle: Klucel (hydroxypropylcellulose) (HPC)): 98 % of control
T/C (dose: 3.12 mg/kg/injection, schedule: Q04DX003 (ip), vehicle: Klucel (hydroxypropylcellulose) (HPC)): 89 % of control

N#C/C(=C\c1ccccc1)C(=O)Nc1ccccc1
T/C (dose: 6.25 mg/kg/injection, schedule: Q01DX009 (ip), vehicle: suspension in saline): 99 % of control
T/C (dose: 12.5 mg/kg/injection, schedule: Q01DX009 (ip), vehicle: suspension in saline): 100 % of control
T/C (dose: 25.0 mg/kg/injection, schedule: Q01DX009 (ip), vehicle: suspension in saline): 99 % of control
T/C (dose: 50.0 mg/kg/injection, schedule: Q01DX009 (ip), vehicle: suspension in saline): 97 % of control

CC(=O)OCC1OC(S[As](C)C)C(OC(C)=O)C(OC(C)=O)C1OC(C)=O (stereo not given)
T/C (dose: 25.0 mg/kg/injection, schedule: Q01DX009 (ip), vehicle: saline with Tween-80): 114 % of control
T/C [10]: 111 % of control
T/C [6]: 116 % of control
T/C [11]: 124 % of control
